From ChEMBL document CHEMBL2074399, “Effects of steroids and verapamil on P-glycoprotein ATPase activity: progesterone, desoxycorticosterone, corticosterone and verapamil are mutually non-exclusive modulators” (Biochem J, 1996) come the findings set out here.

In the data set the target is ATP-dependent translocase ABCB1 (Homo sapiens, UniProt P08183). The data set is described as follows: TP_TRANSPORTER: inhibition of Verapamil stimulated ATP hydrolysis (Verapamil: 2 uM, Corticosterone: 800 uM) in membrane vesicles from DC-3F/ADX cells. The class given is functional, cell membranes, Membrane vesicle. Particulars: hamster.
ATP-dependent translocase ABCB1, sequence (P08183 whole entry): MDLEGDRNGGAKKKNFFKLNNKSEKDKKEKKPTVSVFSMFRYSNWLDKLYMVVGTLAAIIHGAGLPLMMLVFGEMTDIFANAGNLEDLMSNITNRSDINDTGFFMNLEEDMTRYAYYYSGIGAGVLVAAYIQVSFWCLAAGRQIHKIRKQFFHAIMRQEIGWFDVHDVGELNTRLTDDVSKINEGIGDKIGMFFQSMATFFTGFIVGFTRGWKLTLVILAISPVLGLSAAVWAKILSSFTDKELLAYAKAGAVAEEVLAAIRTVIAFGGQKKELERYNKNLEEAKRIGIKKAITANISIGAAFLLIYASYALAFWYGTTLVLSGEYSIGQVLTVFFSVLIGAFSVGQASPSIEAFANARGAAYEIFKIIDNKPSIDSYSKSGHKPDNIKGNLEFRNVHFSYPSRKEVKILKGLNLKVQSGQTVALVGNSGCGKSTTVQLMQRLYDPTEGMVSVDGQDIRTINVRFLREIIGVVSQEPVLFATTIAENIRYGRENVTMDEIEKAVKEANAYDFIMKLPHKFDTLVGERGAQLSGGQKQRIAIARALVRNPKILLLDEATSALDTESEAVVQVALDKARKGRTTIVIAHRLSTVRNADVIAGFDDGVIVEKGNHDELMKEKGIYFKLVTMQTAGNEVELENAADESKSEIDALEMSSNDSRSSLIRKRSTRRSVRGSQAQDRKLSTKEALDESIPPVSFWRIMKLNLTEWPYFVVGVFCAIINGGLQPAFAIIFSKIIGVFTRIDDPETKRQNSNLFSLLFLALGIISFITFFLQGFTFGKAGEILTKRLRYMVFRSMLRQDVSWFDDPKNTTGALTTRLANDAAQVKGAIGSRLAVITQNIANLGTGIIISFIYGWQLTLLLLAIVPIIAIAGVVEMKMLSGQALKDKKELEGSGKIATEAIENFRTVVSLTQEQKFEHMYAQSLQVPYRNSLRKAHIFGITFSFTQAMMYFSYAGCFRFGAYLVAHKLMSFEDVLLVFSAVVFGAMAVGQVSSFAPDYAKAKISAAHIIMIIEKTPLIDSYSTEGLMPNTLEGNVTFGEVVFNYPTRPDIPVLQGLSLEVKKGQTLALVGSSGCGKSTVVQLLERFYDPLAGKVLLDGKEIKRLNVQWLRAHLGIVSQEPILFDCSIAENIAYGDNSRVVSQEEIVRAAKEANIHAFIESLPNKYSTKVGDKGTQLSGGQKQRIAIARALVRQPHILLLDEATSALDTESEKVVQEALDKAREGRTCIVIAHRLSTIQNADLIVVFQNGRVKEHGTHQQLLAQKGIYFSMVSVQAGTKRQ

Consider `C[C@]12C[C@H](O)[C@H]3[C@@H](CCC4=CC(=O)CC[C@@]43C)[C@@H]1CC[C@@H]2C(=O)CO` [CORTICOSTERONE], for which the Activity entry is “inhibitor [+]”.
